From patent US11584775B2, “C4-modified oleanolic acid derivatives for inhibition of IL-17 and other uses” (REATA PHARMACEUTICALS, INC., priority 2015, dated 2023)
pIC50: −log10 of the molar value.

Tests used:
[1] = system: IFNγ-induced Nitric Oxide production; experiment: Nitric oxide production assay in RAW 264.7 mouse macrophages; type: cell-based; settings: RAW264.7, suppression of IFNγ-induced NO production normalized to cell viability (WST-1), RAW 264.7, 24 hours IFNγ
Method: A. Nitric Oxide Production Assay and Cell Viability
RAW 264.7 mouse macrophages were plated in 96-well plates at a density of 30,000 cells per well in triplicate in RPMI 1640+0.5% FBS and incubated at 37° C. with 5% CO2 in a humidified atmosphere. The next day, cells were pre-treated with DMSO (vehicle) or test compound (concentration ranges of 0.4-200 nM or 2-1000 nM) for 2 hours and then treated with recombinant mouse IFNγ (R&D Systems) for 24 hours. Nitric oxide concentration in media was determined using the Griess reagent system (Promega). Cell viability was determined using WST-1 reagent (Roche). Values from test compound samples were normalized to those from DMSO/IFNγ-treated samples. IC50 values were determined based on the suppression of IFNγ-induced Nitric Oxide production normalized to cell viability.

[2] = target: T1, human RORγ (Homo sapiens, UniProt P51449); experiment: RORγ assay (GAL4-RORγ hybrid luciferase reporter, inverse-agonist activity); type: cell-based; settings: GAL4-RORγ hybrid reporter cells, 23 hours
T1 sequence (P51449 269-508 limits assumed): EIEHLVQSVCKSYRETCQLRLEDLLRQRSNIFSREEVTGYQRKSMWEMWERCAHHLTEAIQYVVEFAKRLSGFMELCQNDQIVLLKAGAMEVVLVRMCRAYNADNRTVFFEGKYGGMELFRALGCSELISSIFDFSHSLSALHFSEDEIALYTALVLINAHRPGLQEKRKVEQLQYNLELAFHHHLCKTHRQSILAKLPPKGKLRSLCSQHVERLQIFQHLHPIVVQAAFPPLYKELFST
Text: C. RORγ Assay and Cell Viability
The RORγ assay system was purchased from Indigo Biosciences. This nuclear receptor assay utilizes a human cell line that has been engineered to express a hybrid form of the Human RAR-related Orphan Receptor Gamma (RORγ) at high levels. The N-terminal DNA binding domain (DBD) of the native RORγ receptor was substituted with the yeast GAL4-DBD to generate the GAL4-RORγ hybrid nuclear receptor. The reporter cell line is transfected with a plasmid that encodes the beetle luciferase gene under the control of the GAL4 upstream activating sequence (UAS). GAL4 binds to the UAS and increases transcription of downstream target genes. […] To assess the RORγ inverse-agonist activity of the test compounds, reporter cells were plated in white 96-well plates in triplicate and were treated with DMSO (vehicle) or test compound (concentration ranges of 0.4-200 nM or 2-1000 nM) at 37° C. with 5% CO2 in a humidified atmosphere for 23 hours. After this incubation, luciferin was added to the wells and luciferase activity was determined by measuring the luminescence signal using a BMG Pherastar microplate reader. Viability was determined using the Live Cell Multiplex Assay (Indigo Biosciences). Values from test compound samples were normalized to those from DMSO-treated samples. Data were analyzed using GraphPad Prism version 6.00 for Windows (GraphPad Software, La Jolla Calif. USA). A non-linear regression analysis with log (inhibitor) vs. normalized response using a variable slope was applied to fit the data and determine the IC50 values for inhibition of RORγ and cell viability.

[3] = system: hIL17; experiment: IL-17 release from differentiated primary human T-cells (IL-17A HTRF assay); type: cell-based; settings: inhibition of IL-17A levels; primary human CD4+ T cells differentiated into Th17 cells, 46-hour incubation
Method: D. IL-17 Release from Differentiated Primary Human T-Cells and Cell Viability
Primary human cryopreserved CD4+ T Cells (Lonza, donor #0000402103) were plated in Lymphocyte Growth Medium-3 (LGM-3, Lonza) according to the manufacturer's recommendations, and allowed to recover for approximately 3 hours at 37° C. with 5% CO2 in a humidified atmosphere. After the recovery step, cells were collected by centrifugation and re-plated in 96-well plates at a density of ˜140,000 cells per well in LGM-3 medium that contained DMSO (vehicle) or test compound (2-500 nM or 4-1000 nM concentration range). Triplicate wells were plated for each test condition. DMSO (final concentration ≤0.1%) was used as the vehicle. Immediately after plating, CD4+ T cells were activated by adding Dynabeads Human T-Activator CD3/CD28 (Life Technologies; bead-to-cell ratio of 1:2.5) and differentiated into Th17 cells by adding a mixture of the following cytokines: transforming growth factor-β (TGF-β, 5 ng/mL), IL-6 (20 ng/mL), IL-23 (20 ng/mL), and […] (10 ng/mL). Undifferentiated control cells received only cytokine IL-2 (50 ng/mL). All human recombinant cytokines were purchased from R&D Systems. Following a 46-hour incubation at 37° C. with 5% CO2 in a humidified atmosphere, the plates were centrifuged for 3 minutes at 250×g, and half of the supernatant was transferred to a new plate to be used in the IL-17A assay (see below). Cell viability was assessed in the original plate using the CyQuant Direct Assay (Life Technologies). CyQuant values from test compound samples were normalized to those from DMSO-treated samples. The concentration of IL-17A in the supernatant was measured using the Homogeneous Time-Resolved Fluorescence (HTRF) assay (Cisbio Bioassays) according to the manufacturer's protocol. The assay was performed at room temperature in low volume, solid white 384-well plates (Greiner Bio-One). Samples and standards (serially-diluted human recombinant IL-17A (0 to 5,000 pg/mL concentration range; Cisbio Bioassays) were incubated with the anti-human IL-17A antibody conjugate for 16 hours and fluorescence was measured using a Pherastar FS microplate reader (BMG Labtech) in the HTRF mode (excitation at 337 nm and emission at 665 nm and 620 nm). IL-17A concentrations were assessed in duplicate aliquots of supernatant from each well resulting in a total of six readings per test condition. The 665 nm/620 nm signal ratio was calculated and the concentration of IL-17A in each sample was determined by interpolation from the standard curve. IL-17A values from test compound samples were normalized to those from DMSO-treated samples. Data were analyzed using GraphPad Prism version 6.00 for Windows (GraphPad Software, La Jolla Calif. USA). A non-linear regression analysis with log (inhibitor) vs. normalized response using a variable slope was applied to fit the data and determine the IC50 values for inhibition of IL-17A levels and cell viability.

[4] = system: NRF2; experiment: AREc32 luciferase reporter assay; type: cell-based, human; settings: EC2×: concentration required to increase GST ARE Luciferase reporter activity by 2-fold; AREc32 cells, 19 hours
Text: B. AREc32 Luciferase Reporter Assay
The AREc32 luciferase reporter assay allows for quantitative assessment of the endogenous activity of the Nrf2 transcription factor in cultured mammalian cells. AREc32 cells are derived from MCF-7 human breast carcinoma cells that were stably transfected with a reporter construct that contains the firefly luciferase gene located downstream of eight copies of the rat GSTA2 antioxidant response element (ARE) sequence (Wang et al., 2006; CXR Biosciences). Active NRF2 binds to the ARE sequences and increases expression of the firefly luciferase gene. To assess the NRF2-activating potential of the test compounds, AREc32 cells were plated in black 96-well plates at a density of 20,000 cells per well in triplicate in DMEM+10% FBS+0.8 mg/mL Geneticin and incubated at 37° C. with 5% CO2 in a humidified atmosphere. The next day, cells were treated with DMSO (vehicle) or test compound (concentration ranges of 0.4-200 nM or 2-1000 nM) for 19 hours. Luciferase activity was determined using the ONE-Glo Luciferase assay (Promega). The luminescence signal was measured on a BMG Pherastar microplate reader. The mean luminescence value from test compound-treated wells was normalized to that from DMSO-treated wells and was represented as fold-induction. Data were analyzed using GraphPad Prism version 6.00 for Windows, GraphPad Software, La Jolla Calif. USA. A non-linear regression curve with log (agonist) vs. response using a variable slope was used to fit the data. Where applicable, a maximum threshold value of 50-fold over DMSO was set. EC2× values were interpolated from the curve. EC2× corresponds to the concentration of test compound required to increase GST ARE Luciferase reporter activity by 2-fold.

**Q.** How did the pIC50 [1] turn out when `COCOC[C@]1(C)C(=O)C(C#N)=C[C@]2(C)C3=CC(=O)[C@@H]4[C@@H]5CC(C)(C)CC[C@]5(C(=O)OC)CC[C@@]4(C)[C@]3(C)CC[C@H]21` [Compound T7, methyl (4aS,6aR,6bS,8aR,9R,12aS,14aR,14bS)-11-cyano-9-((methoxymethoxy)methyl)-2,2,6a,6b,9,12a-hexamethyl-10,14-dioxo-1,3,4,5,6,6a,6b,7,8,8a,9,10,12a,14,14a,14b-hexadecahydropicene-4a(2H)-carboxylate] was run?
**A.** 7.02

**Q.** And the pIC50 [2]?
**A.** 6.60

**Q.** And the pIC50 [3]?
**A.** 7.57

**Q.** And the “EC2x: concentration giving 2-fold induction of ARE luciferase reporter” value [4]?
**A.** 270 nM

**Q.** What does the source list for `COC(=O)[C@]12CCC(C)(C)C[C@H]1[C@H]1C(=O)C=C3[C@@]4(C)C=C(C#N)C(=O)[C@@](C)(COC(C)=O)[C@@H]4CC[C@@]3(C)[C@]1(C)CC2` [Compound T8, methyl (4aS,6aR,6bS,8aR,9R,12aS,14aR,14bS)-9-(acetoxymethyl)-11-cyano-2,2,6a,6b,9,12a-hexamethyl-10,14-dioxo-1,3,4,5,6,6a,6b,7,8,8a,9,10,12a,14,14a,14b-hexadecahydropicene-4a(2H)-carboxylate]?
**A.** pIC50 [1]: 7.13; pIC50 [2]: 6.96; pIC50 [3]: 7.62; EC2x: concentration giving 2-fold induction of ARE luciferase reporter [4]: 276 nM

**Q.** `COC(=O)[C@]12CCC(C)(C)C[C@H]1[C@H]1C(=O)C=C3[C@@]4(C)C=C(C#N)C(=O)[C@@](C)(COC(=O)c5ccccc5)[C@@H]4CC[C@@]3(C)[C@]1(C)CC2` [Compound T9, methyl (4aS,6aR,6bS,8aR,9R,12aS,14aR,14bS)-9-((benzoyloxy)methyl)-11-cyano-2,2,6a,6b,9,12a-hexamethyl-10,14-dioxo-1,3,4,5,6,6a,6b,7,8,8a,9,10,12a,14,14a,14b-hexadecahydropicene-4a(2H)-carboxylate] was tested. Which pIC50 [1] did it give?
**A.** 6.72

**Q.** What about the pIC50 [2] of the same compound?
**A.** 6.44

**Q.** What about the pIC50 [3] of the same compound?
**A.** 7.43

**Q.** What about the “EC2x: concentration giving 2-fold induction of ARE luciferase reporter” value [4] of the same compound?
**A.** 962 nM

**Q.** What does the source list for `COC(=O)[C@]12CCC(C)(C)C[C@H]1[C@H]1C(=O)C=C3[C@@]4(C)C=C(C#N)C(=O)[C@@](C)(NC(=O)OC(C)(C)C)[C@@H]4CC[C@@]3(C)[C@]1(C)CC2` [Compound T10]?
**A.** pIC50 [1]: 6.38; pIC50 [2]: 5.97; pIC50 [3]: 6.69; EC2x: concentration giving 2-fold induction of ARE luciferase reporter [4]: >1000 nM

**Q.** `COC(=O)[C@]12CCC(C)(C)C[C@H]1[C@H]1C(=O)C=C3[C@@]4(C)C=C(C#N)C(=O)[C@@](C)(N)[C@@H]4CC[C@@]3(C)[C@]1(C)CC2` [Compound T11, methyl (4aS,6aR,6bS,8aR,9S,12aS,14aR,14bS)-9-amino-11-cyano-2,2,6a,6b,9,12a-hexamethyl-10,14-dioxo-1,3,4,5,6,6a,6b,7,8,8a,9,10,12a,14,14a,14b-hexadecahydropicene-4a(2H)-carboxylate] was tested. Which pIC50 [1] did it give?
**A.** 6.22

**Q.** And the pIC50 [2]?
**A.** 6.84

**Q.** What about the pIC50 [3] of the same compound?
**A.** 7.12

**Q.** What about the “EC2x: concentration giving 2-fold induction of ARE luciferase reporter” value [4] of the same compound?
**A.** 477 nM

**Q.** `COC(=O)[C@]12CCC(C)(C)C[C@H]1[C@H]1C(=O)C=C3[C@@]4(C)C=C(C#N)C(=O)[C@@](C)(NC(C)=O)[C@@H]4CC[C@@]3(C)[C@]1(C)CC2` [Compound T12, methyl (4aS,6aR,6bS,8aR,9S,12aS,14aR,14bS)-9-acetamido-11-cyano-2,2,6a,6b,9,12a-hexamethyl-10,14-dioxo-1,3,4,5,6,6a,6b,7,8,8a,9,10,12a,14,14a,14b-hexadecahydropicene-4a(2H)-carboxylate] was tested. Which pIC50 [1] did it give?
**A.** < 6.00

**Q.** And the pIC50 [2]?
**A.** 6.38

**Q.** What about the pIC50 [3] of the same compound?
**A.** 7.09

**Q.** And the “EC2x: concentration giving 2-fold induction of ARE luciferase reporter” value [4]?
**A.** >1000 nM

**Q.** What does the source list for `CNC(=O)[C@]1(C)C(=O)C(C#N)=C[C@]2(C)C3=CC(=O)[C@@H]4[C@@H]5CC(C)(C)CC[C@]5(C(=O)OC)CC[C@@]4(C)[C@]3(C)CC[C@@H]12` [Compound T13, methyl (4aS,6aR,6bS,8aR,9S,12aS,14aR,14bS)-11-cyano-2,2,6a,6b,9,12a-hexamethyl-9-(methylcarbamoyl)-10,14-dioxo-1,3,4,5,6,6a,6b,7,8,8a,9,10,12a,14,14a,14b-hexadecahydropicene-4a(2H)-carboxylate]?
**A.** pIC50 [1]: 6.53; pIC50 [2]: 6.79; pIC50 [3]: 7.31; EC2x: concentration giving 2-fold induction of ARE luciferase reporter [4]: 567 nM

**Q.** With `COC(=O)[C@]12CCC(C)(C)C[C@H]1[C@H]1C(=O)C=C3[C@@]4(C)C=C(C#N)C(=O)[C@@](C)(C(=O)N(C)C)[C@@H]4CC[C@@]3(C)[C@]1(C)CC2` [Compound T14] as the compound, how does the pIC50 [1] read?
**A.** 6.78

**Q.** What about the pIC50 [2] of the same compound?
**A.** 6.86

**Q.** What about the pIC50 [3] of the same compound?
**A.** 7.34

**Q.** And the “EC2x: concentration giving 2-fold induction of ARE luciferase reporter” value [4]?
**A.** >1000 nM
